Assay results as given in PMC6978363, “Chaperone mediated detection of small molecule target binding in cells” (Nature Communications, 2020).

Columns and labels:
Test in all cases: biochemical
Details in all cases: read-out: % Inhibition (at 10mM)
FGFR1 = FGFR1 (Homo sapiens, UniProt P11362)
SGK2 = SGK2 (Homo sapiens, UniProt Q9HBY8)
CaMKI_delta = molecular target: T1, CaMKI_delta (Homo sapiens, UniProt Q8IU85)
T1 construct: gene CAMK1D

TrkC = molecular target: T2, TrkC (Homo sapiens, UniProt Q16288)
T2 construct: gene NTRK3

ErbB2 = ErbB2 (Homo sapiens, UniProt P04626)
ROCK2 = ROCK2 (Homo sapiens, UniProt O75116)
Aurora_B = molecular target: T3, Aurora_B (Homo sapiens, UniProt Q96GD4)
T3 construct: gene AURKB

TSSK1 = molecular target: T4, TSSK1 (Homo sapiens, UniProt Q9BXA7)
T4 construct: gene TSSK1B

MST1 = molecular target: T5, MST1 (Homo sapiens, UniProt Q13043)
T5 construct: gene STK4

GRK5 = GRK5 (Homo sapiens, UniProt P34947)
CSF1R = CSF1R (Homo sapiens, UniProt P07333)
TBK1 = TBK1 (Homo sapiens, UniProt Q9UHD2)
GRK7 = GRK7 (Homo sapiens, UniProt Q8WTQ7)
CHK1 = molecular target: T6, CHK1 (Homo sapiens, UniProt O14757)
T6 construct: gene CHEK1

MSK2 = molecular target: T7, MSK2 (Homo sapiens, UniProt O75676)
T7 construct: gene RPS6KA4

Srm = molecular target: T8, Srm (Homo sapiens, UniProt Q9H3Y6)
T8 construct: gene SRMS

ZIPK = molecular target: T9, ZIPK (Homo sapiens, UniProt O43293)
T9 construct: gene DAPK3

KHS1 = molecular target: T10, KHS1 (Homo sapiens, UniProt Q9Y4K4)
T10 construct: gene MAP4K5

MRCK_alpha = molecular target: T11, MRCK_alpha (Homo sapiens, UniProt Q5VT25)
T11 construct: gene CDC42BPA

p38_delta = molecular target: T12, p38_delta (Homo sapiens, UniProt O15264)
T12 construct: gene MAPK13

IRR = molecular target: T13, IRR (Homo sapiens, UniProt P14616)
T13 construct: gene INSRR

RSK3 = molecular target: T14, RSK3 (Homo sapiens, UniProt Q15349)
T14 construct: gene RPS6KA2

PRKAA2_B2_G3 = molecular target: T15, PRKAA2_B2_G3 (Homo sapiens, UniProt P54646)
T15 construct: gene PRKAA2

DYRK3 = DYRK3 (Homo sapiens, UniProt O43781)
Flt1 = Flt1 (Homo sapiens, UniProt P17948)
LynB = molecular target: T16, LynB (Homo sapiens, UniProt P07948)
T16 construct: gene LYN; isoform B

HIPK1 = HIPK1 (Homo sapiens, UniProt Q86Z02)
HIPK4 = HIPK4 (Homo sapiens, UniProt Q8NE63)
CDK5/p35 = molecular target: T17, CDK5/p35 (Homo sapiens, UniProt Q00535)
T17 construct: p35

PKC_iota = molecular target: T18, PKC_iota (Homo sapiens, UniProt P41743)
T18 construct: gene PRKCI

NIM1 = molecular target: T19, NIM1 (Homo sapiens, UniProt Q8IY84)
T19 construct: gene NIM1K

PLK1 = PLK1 (Homo sapiens, UniProt P53350)
CamKII_alpha = molecular target: T20, CamKII_alpha (Homo sapiens, UniProt Q9UQM7)
T20 construct: gene CAMK2A

GRK3 = GRK3 (Homo sapiens, UniProt P35626)
Blk = Blk (Homo sapiens, UniProt P51451)
PRKAA2 = PRKAA2 (Homo sapiens, UniProt P54646)
JAK2 = JAK2 (Homo sapiens, UniProt O60674)
MELK = MELK (Homo sapiens, UniProt Q14680)

T10 sequence (Q9Y4K4 whole entry): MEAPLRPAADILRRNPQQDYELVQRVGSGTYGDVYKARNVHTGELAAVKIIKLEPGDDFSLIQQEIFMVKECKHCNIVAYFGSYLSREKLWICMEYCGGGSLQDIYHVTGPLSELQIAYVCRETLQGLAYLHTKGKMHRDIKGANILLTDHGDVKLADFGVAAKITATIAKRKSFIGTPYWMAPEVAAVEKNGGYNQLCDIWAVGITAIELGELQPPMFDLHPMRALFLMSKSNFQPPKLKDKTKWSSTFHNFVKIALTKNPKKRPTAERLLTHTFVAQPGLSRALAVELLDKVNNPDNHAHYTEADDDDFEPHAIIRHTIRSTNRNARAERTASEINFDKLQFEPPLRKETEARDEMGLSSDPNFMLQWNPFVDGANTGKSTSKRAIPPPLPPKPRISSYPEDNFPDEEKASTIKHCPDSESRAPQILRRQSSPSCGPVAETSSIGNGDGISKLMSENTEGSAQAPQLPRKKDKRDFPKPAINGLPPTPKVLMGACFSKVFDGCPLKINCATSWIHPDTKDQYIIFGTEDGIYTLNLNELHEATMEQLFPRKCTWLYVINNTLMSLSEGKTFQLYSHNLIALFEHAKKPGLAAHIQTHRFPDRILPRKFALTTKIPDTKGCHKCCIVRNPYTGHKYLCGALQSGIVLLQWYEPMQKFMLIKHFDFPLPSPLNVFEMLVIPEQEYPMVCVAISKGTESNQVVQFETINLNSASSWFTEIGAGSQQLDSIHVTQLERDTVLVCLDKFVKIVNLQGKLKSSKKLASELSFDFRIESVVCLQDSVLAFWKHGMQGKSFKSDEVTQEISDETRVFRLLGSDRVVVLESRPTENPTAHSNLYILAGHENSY
ROCK2, sequence (O75116 whole entry): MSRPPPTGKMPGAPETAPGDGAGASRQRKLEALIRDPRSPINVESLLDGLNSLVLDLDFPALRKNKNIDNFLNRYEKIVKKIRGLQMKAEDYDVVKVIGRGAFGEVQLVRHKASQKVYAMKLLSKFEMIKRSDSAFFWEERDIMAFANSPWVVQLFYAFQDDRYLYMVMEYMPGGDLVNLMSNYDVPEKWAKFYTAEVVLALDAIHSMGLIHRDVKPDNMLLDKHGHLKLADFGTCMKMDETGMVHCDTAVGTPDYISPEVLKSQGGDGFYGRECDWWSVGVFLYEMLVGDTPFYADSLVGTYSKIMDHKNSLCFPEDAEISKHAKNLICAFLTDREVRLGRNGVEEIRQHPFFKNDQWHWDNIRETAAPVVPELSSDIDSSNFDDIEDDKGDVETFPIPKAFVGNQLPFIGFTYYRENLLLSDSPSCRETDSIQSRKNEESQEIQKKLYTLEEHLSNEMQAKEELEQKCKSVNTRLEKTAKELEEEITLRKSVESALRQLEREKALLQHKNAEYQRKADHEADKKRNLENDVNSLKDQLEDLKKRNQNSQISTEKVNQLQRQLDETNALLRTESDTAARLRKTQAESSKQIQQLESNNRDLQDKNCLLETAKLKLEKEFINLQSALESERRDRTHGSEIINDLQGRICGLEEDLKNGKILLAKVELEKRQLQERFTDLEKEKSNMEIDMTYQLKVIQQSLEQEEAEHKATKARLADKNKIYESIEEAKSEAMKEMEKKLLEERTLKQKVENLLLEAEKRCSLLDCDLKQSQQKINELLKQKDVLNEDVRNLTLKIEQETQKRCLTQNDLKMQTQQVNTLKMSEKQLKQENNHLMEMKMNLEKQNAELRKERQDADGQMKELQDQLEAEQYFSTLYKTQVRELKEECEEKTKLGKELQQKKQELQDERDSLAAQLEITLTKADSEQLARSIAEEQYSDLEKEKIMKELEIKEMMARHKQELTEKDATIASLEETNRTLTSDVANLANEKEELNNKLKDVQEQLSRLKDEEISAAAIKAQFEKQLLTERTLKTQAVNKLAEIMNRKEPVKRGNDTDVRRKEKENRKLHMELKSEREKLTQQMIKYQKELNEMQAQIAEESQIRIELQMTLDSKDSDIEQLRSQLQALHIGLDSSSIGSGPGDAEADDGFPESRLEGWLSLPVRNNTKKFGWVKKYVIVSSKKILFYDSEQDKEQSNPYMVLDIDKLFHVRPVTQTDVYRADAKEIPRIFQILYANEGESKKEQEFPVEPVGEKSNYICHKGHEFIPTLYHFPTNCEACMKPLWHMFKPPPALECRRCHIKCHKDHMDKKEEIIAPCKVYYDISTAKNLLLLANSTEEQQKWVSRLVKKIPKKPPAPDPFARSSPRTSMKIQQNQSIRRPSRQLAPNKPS
GRK3, sequence (P35626 whole entry): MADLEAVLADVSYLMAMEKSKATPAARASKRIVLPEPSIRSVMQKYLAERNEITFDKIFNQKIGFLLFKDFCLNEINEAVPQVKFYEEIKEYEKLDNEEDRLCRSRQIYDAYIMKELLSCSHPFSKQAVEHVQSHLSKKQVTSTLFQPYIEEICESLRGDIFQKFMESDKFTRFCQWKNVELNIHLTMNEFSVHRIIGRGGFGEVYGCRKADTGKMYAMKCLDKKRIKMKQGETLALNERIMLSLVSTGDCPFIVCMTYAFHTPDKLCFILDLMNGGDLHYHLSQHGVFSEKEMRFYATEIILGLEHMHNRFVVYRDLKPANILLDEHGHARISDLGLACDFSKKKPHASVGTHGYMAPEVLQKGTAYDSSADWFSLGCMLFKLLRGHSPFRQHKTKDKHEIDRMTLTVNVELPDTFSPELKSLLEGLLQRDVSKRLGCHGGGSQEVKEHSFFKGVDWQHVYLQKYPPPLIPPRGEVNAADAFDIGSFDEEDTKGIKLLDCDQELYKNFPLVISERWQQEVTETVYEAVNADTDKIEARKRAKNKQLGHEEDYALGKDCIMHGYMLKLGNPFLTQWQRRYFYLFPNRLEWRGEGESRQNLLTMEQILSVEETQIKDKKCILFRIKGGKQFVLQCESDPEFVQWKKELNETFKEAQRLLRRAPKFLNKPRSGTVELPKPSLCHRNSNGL
PLK1, sequence (P53350 whole entry): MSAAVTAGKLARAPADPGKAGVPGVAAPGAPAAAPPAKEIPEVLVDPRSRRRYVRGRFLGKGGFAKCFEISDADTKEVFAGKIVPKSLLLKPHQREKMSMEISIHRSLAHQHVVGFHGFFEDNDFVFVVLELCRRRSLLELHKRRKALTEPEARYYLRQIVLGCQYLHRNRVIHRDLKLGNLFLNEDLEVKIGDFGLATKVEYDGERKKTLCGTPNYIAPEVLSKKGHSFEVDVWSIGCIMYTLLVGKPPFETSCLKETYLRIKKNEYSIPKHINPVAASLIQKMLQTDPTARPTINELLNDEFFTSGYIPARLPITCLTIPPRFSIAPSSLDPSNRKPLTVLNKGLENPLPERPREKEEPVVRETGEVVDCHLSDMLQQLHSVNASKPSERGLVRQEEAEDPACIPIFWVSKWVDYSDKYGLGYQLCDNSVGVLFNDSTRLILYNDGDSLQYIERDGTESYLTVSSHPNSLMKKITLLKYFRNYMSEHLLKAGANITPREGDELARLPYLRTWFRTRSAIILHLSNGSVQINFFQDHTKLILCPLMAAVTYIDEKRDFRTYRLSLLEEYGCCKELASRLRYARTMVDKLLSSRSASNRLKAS
TBK1, sequence (Q9UHD2 whole entry): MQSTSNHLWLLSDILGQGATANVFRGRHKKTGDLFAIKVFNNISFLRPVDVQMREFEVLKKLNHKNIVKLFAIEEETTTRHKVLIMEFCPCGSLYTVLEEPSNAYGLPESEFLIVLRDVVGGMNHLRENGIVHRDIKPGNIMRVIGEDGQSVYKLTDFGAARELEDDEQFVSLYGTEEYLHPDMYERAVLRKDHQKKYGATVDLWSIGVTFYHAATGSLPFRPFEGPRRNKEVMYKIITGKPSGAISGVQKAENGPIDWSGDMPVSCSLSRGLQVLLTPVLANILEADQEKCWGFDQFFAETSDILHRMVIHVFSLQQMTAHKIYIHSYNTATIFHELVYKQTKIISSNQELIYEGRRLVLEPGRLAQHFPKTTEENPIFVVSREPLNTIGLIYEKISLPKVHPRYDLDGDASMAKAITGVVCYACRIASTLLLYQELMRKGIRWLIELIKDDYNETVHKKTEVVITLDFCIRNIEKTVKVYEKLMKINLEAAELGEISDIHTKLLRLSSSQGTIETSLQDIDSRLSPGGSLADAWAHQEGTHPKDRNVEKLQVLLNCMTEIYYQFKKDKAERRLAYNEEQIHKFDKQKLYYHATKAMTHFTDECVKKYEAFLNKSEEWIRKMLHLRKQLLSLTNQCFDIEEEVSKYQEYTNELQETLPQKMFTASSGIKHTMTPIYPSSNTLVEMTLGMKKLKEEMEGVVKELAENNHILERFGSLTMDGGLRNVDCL
T14 sequence (Q15349 whole entry): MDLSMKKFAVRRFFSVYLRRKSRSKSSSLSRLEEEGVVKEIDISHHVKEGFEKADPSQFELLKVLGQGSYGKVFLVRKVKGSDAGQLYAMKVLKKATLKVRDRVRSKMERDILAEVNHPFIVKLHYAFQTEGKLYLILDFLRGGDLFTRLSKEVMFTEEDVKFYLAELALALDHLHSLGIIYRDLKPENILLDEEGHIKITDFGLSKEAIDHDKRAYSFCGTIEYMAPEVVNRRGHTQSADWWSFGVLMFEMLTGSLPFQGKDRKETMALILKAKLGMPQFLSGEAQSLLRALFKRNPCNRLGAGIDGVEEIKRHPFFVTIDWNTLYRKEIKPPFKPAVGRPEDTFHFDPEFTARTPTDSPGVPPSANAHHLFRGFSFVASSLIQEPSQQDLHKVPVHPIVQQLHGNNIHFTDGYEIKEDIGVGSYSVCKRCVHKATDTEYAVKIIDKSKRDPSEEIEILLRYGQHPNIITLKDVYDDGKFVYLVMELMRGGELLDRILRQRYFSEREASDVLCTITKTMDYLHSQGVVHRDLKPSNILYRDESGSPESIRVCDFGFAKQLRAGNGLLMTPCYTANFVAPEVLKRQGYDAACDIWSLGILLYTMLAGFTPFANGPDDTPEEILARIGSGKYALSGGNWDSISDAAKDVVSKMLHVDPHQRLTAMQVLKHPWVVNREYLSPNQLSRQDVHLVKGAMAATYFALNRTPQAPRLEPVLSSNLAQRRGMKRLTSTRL

**Q.** `CC(C)(O)CC(=O)NCCn1ccc2ncnc(Nc3ccc(Oc4cccc(C(F)(F)F)c4)c(Cl)c3)c21` [TAK-285] was tested. Which inhibition (FGFR1) did it give?
**A.** 4%

**Q.** What about the inhibition (SGK2) of the same molecule?
**A.** 3.5%

**Q.** And the inhibition (CaMKI_delta)?
**A.** 0%

**Q.** What about the inhibition (TrkC) of the same molecule?
**A.** 6%

**Q.** And the inhibition (ErbB2)?
**A.** 99%

**Q.** And the inhibition (ROCK2)?
**A.** -0.5%

**Q.** And the inhibition (Aurora_B)?
**A.** 68%

**Q.** What about the inhibition (TSSK1) of the same molecule?
**A.** -6.5%

**Q.** What about the inhibition (MST1) of the same molecule?
**A.** 2%

**Q.** What about the inhibition (GRK5) of the same molecule?
**A.** -4.5%

**Q.** And the inhibition (CSF1R)?
**A.** 10.5%

**Q.** What about the inhibition (TBK1) of the same molecule?
**A.** 8%

**Q.** And the inhibition (GRK7)?
**A.** 5.5%

**Q.** And the inhibition (CHK1)?
**A.** 4.5%

**Q.** What about the inhibition (MSK2) of the same molecule?
**A.** 9.5%

**Q.** And the inhibition (Srm)?
**A.** 13.5%

**Q.** And the inhibition (ZIPK)?
**A.** 7%

**Q.** What about the inhibition (KHS1) of the same molecule?
**A.** 40.5%

**Q.** And the inhibition (MRCK_alpha)?
**A.** -3.5%

**Q.** What about the inhibition (p38_delta) of the same molecule?
**A.** 5.5%

**Q.** And the inhibition (IRR)?
**A.** 6.5%

**Q.** And the inhibition (RSK3)?
**A.** 2.5%

**Q.** What about the inhibition (PRKAA2_B2_G3) of the same molecule?
**A.** 9.5%

**Q.** And the inhibition (DYRK3)?
**A.** -0.5%

**Q.** And the inhibition (Flt1)?
**A.** -1.5%

**Q.** And the inhibition (LynB)?
**A.** 37%

**Q.** What about the inhibition (HIPK1) of the same molecule?
**A.** 4.5%

**Q.** And the inhibition (HIPK4)?
**A.** 5.5%

**Q.** And the inhibition (CDK5/p35)?
**A.** 3.5%

**Q.** What about the inhibition (PKC_iota) of the same molecule?
**A.** 8%

**Q.** What about the inhibition (NIM1) of the same molecule?
**A.** 8.5%

**Q.** What about the inhibition (PLK1) of the same molecule?
**A.** 8%

**Q.** What about the inhibition (CamKII_alpha) of the same molecule?
**A.** 2.5%

**Q.** What about the inhibition (GRK3) of the same molecule?
**A.** -5.5%

**Q.** And the inhibition (Blk)?
**A.** 25%

**Q.** And the inhibition (PRKAA2)?
**A.** 10.5%

**Q.** What about the inhibition (JAK2) of the same molecule?
**A.** 2%

**Q.** And the inhibition (MELK)?
**A.** 5.5%
